Where a SMILES comes first, the peptide text is derived from it. Bridges are numbered along the chain shown (N, C = ends). [ ]: non-standard residue; d: D form. The star is where a group is joined. Threoninol(2S,3R) = C[C@@H](O)[C@H](CO)N*
Experiments:
[1] = target: Matrix metalloproteinase-9 (Homo sapiens, UniProt P14780); assay: biochemical; assay type: cell-based;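 further: inhibition of isolated MMP-9 enzyme activity toward a synthetic peptide substrate, from the DrugMatrix protease screening panel; in other assays of this panel Not Active means under 50% inhibition at 10 µM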
Matrix metalloproteinase-9, sequence (P14780 whole entry): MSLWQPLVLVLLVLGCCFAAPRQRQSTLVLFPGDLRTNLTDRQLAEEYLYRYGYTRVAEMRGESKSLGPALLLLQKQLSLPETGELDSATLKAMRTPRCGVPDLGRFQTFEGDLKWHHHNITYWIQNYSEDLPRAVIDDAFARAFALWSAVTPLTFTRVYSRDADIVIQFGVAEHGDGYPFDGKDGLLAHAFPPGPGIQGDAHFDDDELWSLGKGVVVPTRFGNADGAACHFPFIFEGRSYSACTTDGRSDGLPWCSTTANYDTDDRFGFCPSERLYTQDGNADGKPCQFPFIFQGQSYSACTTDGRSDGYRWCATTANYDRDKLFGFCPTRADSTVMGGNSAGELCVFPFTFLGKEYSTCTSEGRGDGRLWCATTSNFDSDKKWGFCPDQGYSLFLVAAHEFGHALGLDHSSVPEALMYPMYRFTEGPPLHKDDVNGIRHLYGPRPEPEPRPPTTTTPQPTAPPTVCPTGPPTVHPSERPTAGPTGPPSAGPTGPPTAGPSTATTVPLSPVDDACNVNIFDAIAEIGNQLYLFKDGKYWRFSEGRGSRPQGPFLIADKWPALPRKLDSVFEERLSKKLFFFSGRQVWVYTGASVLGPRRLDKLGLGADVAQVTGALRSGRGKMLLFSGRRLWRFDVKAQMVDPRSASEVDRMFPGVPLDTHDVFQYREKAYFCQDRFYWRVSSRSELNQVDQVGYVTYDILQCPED

Neutrophil elastase = target: T1, Neutrophil elastase (Homo sapiens, UniProt P08246); assay type: tissue-based;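 further: inhibition of neutrophil elastase enzyme activity, measured with a p-nitroanilide-linked peptide substrate; in other assays of this panel Not Active means under 50% inhibition at 10 µM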
T1 sequence (P08246 whole entry): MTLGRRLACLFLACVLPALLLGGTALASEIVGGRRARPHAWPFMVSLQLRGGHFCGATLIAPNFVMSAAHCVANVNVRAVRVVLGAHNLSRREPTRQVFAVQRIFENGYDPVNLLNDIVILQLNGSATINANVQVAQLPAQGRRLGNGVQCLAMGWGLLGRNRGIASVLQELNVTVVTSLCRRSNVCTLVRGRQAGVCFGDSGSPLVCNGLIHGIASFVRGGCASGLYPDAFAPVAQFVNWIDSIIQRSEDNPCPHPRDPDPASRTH

[2] = target: T2, Neuropeptide Y receptor type 2 (Homo sapiens, UniProt P49146); assay type: cell membranes, Membrane; conditions: kan-ts; further: in other assays of this panel Not Active means under 50% inhibition at 10 µM
T2 sequence (P49146 whole entry): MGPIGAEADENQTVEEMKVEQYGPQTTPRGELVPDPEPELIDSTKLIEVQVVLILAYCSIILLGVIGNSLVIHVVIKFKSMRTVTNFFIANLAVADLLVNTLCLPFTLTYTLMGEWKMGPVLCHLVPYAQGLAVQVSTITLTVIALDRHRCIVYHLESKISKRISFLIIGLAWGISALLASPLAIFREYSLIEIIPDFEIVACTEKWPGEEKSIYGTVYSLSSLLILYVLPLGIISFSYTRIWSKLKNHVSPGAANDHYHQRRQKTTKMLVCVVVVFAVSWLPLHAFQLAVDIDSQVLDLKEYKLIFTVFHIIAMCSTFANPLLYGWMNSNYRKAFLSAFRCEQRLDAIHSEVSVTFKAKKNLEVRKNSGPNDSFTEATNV

[3] = target: T3, Nitric oxide synthase, inducible (Mus musculus, UniProt P29477); set-up: species or system Escherichia coli;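 further: inhibition of iNOS enzyme activity measured with L-arginine as substrate; in other assays of this panel Not Active means under 50% inhibition at 10 µM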
T3 sequence (P29477 whole entry): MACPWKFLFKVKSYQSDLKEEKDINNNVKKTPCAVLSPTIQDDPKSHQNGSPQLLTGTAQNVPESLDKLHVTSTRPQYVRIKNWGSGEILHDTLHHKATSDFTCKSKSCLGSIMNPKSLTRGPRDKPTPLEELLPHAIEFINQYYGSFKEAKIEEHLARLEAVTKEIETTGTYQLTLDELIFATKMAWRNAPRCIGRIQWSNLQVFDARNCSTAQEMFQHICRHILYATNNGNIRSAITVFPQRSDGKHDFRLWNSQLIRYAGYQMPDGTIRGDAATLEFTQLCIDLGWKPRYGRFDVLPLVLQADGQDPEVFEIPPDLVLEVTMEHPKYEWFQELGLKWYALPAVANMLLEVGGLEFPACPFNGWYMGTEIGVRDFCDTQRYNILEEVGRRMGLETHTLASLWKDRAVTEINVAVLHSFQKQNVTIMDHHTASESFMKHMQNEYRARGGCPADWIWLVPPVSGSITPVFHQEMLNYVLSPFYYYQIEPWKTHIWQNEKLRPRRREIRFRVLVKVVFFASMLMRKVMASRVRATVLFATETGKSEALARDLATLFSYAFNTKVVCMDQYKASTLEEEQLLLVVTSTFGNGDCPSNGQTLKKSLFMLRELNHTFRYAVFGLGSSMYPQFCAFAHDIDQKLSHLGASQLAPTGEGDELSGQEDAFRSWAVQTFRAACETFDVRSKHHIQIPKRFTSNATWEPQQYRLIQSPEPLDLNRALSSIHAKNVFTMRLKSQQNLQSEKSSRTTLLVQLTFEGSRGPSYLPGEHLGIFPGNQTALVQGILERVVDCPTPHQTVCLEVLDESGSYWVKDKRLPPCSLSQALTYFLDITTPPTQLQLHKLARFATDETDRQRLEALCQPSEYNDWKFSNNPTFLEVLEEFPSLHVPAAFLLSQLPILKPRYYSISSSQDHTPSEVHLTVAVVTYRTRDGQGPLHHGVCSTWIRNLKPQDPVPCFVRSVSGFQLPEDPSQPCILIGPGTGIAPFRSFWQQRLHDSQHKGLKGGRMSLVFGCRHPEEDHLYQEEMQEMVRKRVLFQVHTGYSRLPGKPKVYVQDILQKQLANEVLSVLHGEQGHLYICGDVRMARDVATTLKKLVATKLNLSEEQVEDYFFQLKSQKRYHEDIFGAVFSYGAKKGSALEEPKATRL

[4] = target: T4, C-X-C chemokine receptor type 1 (Homo sapiens, UniProt P25024); further: in other assays of this panel Not Active means under 50% inhibition at 10 µM
T4 sequence (P25024 whole entry): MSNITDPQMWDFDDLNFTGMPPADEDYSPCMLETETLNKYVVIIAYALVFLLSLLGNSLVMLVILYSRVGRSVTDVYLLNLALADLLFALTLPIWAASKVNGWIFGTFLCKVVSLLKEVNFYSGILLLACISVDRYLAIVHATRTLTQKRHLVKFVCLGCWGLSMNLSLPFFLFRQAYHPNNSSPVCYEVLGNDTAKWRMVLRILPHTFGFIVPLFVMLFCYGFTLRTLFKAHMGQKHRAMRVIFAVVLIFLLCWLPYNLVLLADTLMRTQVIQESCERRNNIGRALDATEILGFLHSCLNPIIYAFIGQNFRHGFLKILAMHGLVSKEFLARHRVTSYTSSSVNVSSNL

[5] = DRUGMATRIX: Calcium Channel Type L, Benzothiazepine radioligand binding (ligand: [3H] Diltiazem); assay type: cell membranes, Rattus norvegicus, Wistar, Brain, Membrane; conditions: Not Active = under 50% inhibition at 10 µM
[6] = target: T5, C-C chemokine receptor type 4 (Homo sapiens, UniProt P51679); assay type: cell membranes, Membrane; conditions: chem-1; further: in other assays of this panel Not Active means under 50% inhibition at 10 µM
T5 sequence (P51679 whole entry): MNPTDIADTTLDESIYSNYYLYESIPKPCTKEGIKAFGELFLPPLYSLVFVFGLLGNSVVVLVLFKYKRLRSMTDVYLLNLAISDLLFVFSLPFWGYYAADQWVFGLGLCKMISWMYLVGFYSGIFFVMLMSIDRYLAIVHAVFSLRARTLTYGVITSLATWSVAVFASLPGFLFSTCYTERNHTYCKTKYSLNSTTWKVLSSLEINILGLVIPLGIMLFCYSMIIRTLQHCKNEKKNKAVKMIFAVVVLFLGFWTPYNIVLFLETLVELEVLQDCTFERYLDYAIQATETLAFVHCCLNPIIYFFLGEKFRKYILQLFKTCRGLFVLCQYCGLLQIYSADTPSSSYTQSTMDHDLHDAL

[7] = target: 5-hydroxytryptamine receptor 6 (Homo sapiens, UniProt P50406); assay type: cell membranes, HeLa, Membrane; conditions: hela; further: in other assays of this panel Not Active means under 50% inhibition at 10 µM
5-hydroxytryptamine receptor 6, sequence (P50406 whole entry): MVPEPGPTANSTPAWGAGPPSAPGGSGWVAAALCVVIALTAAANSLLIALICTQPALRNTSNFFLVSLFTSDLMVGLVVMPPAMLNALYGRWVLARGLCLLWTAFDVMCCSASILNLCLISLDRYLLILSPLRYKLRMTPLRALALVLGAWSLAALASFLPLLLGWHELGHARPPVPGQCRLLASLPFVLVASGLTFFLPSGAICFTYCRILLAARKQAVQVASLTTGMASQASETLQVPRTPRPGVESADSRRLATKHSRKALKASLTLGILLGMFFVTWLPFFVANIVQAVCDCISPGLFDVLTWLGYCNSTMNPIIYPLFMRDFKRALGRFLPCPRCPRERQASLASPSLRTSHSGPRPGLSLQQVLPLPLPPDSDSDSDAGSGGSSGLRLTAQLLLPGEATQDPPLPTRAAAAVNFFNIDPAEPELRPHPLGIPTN

CADMIUM DICHLORIDE
Not Active: IC50 [1] | Ki [1] | IC50 (Neutrophil elastase) | Ki (Neutrophil elastase) | IC50 [2] | Ki [2] | IC50 [3] | Ki [3] | IC50 [4] | Ki [4] | IC50 [5] | Ki [5] | IC50 [6] | Ki [6] | IC50 [7] | Ki [7]

CCCN(CCC)C(=O)C(CCC(=O)O)NC(=O)c1ccccc1 (centres undefined) [PROGLUMIDE]
Not Active: IC50 [1] | IC50 (Neutrophil elastase) | IC50 [2] | IC50 [3] | IC50 [4] | IC50 [5] | Ki [5] | IC50 [6] | IC50 [7]

O=C(N[C@H](CO)[C@H](O)c1ccc([N+](=O)[O-])cc1)C(Cl)Cl [CHLORAMPHENICOL]
Not Active: IC50 [1] | IC50 (Neutrophil elastase) | IC50 [2] | IC50 [3] | IC50 [4] | IC50 [5] | Ki [5] | IC50 [6] | IC50 [7]

CCCCOc1ccc(OCCCN2CCOCC2)cc1 [PRAMOXINE]
Not Active: IC50 [1] | IC50 (Neutrophil elastase) | IC50 [2] | IC50 [3] | IC50 [4] | IC50 [5] | Ki [5] | IC50 [6] | IC50 [7]

CC(C)(C(=O)c1cccnc1)c1cccnc1 [METYRAPONE]
Not Active: IC50 [1] | IC50 (Neutrophil elastase) | IC50 [2] | IC50 [3] | IC50 [4] | IC50 [5] | Ki [5] | IC50 [6] | IC50 [7]

CC(=O)Nc1cccc(O)c1 [METACETAMOL]
Not Active: IC50 [1] | IC50 (Neutrophil elastase) | IC50 [2] | IC50 [3] | IC50 [4] | IC50 [5] | Ki [5] | IC50 [6] | IC50 [7]

NC(=O)c1cnccn1 [PYRAZINAMIDE]
Not Active: IC50 [1] | IC50 (Neutrophil elastase) | IC50 [2] | IC50 [3] | IC50 [4] | IC50 [5] | Ki [5] | IC50 [6] | IC50 [7]

CC[C@@H](CO)NCCN[C@@H](CC)CO [ETHAMBUTOL]
Not Active: IC50 [1] | IC50 (Neutrophil elastase) | IC50 [2] | IC50 [3] | IC50 [4] | IC50 [5] | Ki [5] | IC50 [6] | IC50 [7]

CC(C)(Oc1ccc(C2CCCc3ccccc32)cc1)C(=O)O (centres undefined) [NAFENOPIN]
Not Active: IC50 [1] | IC50 (Neutrophil elastase) | IC50 [2] | IC50 [3] | IC50 [4] | IC50 [5] | Ki [5] | IC50 [6] | IC50 [7]

C[C@@H]1C[C@@H]([C@H](O)CC2CC(=O)NC(=O)C2)C(=O)[C@@H](C)C1 [CYCLOHEXIMIDE]
Not Active: IC50 [1] | IC50 (Neutrophil elastase) | IC50 [2] | IC50 [3] | IC50 [4] | IC50 [5] | Ki [5] | IC50 [6] | IC50 [7]

CCn1cc(C(=O)O)c(=O)c2cc(F)c(N3CCN(C)CC3)cc21 [PEFLOXACIN]
Not Active: IC50 [1] | IC50 (Neutrophil elastase) | IC50 [2] | IC50 [3] | IC50 [4] | IC50 [5] | Ki [5] | IC50 [6] | IC50 [7]

CCN(CC)CCOC(=O)c1ccc(N)cc1 [PROCAINE]
Not Active: IC50 [1] | IC50 (Neutrophil elastase) | IC50 [2] | IC50 [3] | IC50 [4] | IC50 [5] | Ki [5] | IC50 [6] | IC50 [7]

CCCC(CCC)C(=O)O [VALPROIC ACID]
Not Active: IC50 [1] | IC50 (Neutrophil elastase) | IC50 [2] | IC50 [3] | IC50 [4] | IC50 [5] | Ki [5] | IC50 [6] | IC50 [7]

S=C=Nc1cccc2ccccc12 [1-NAPHTHYLISOTHIOCYANATE]
Not Active: IC50 [1] | IC50 (Neutrophil elastase) | IC50 [2] | IC50 [3] | IC50 [4] | IC50 [5] | Ki [5] | IC50 [6] | IC50 [7]

COc1ccc2cc([C@H](C)C(=O)O)ccc2c1 [NAPROXEN]
Not Active: IC50 [1] | IC50 (Neutrophil elastase) | IC50 [2] | IC50 [3] | IC50 [4] | IC50 [5] | Ki [5] | IC50 [6] | IC50 [7]

Cc1ccccc1C(=O)N1CCC(Cc2ccccc2)CC1
Not Active: IC50 [1] | IC50 (Neutrophil elastase) | IC50 [2] | IC50 [3] | IC50 [4] | IC50 [5] | Ki [5] | IC50 [6] | IC50 [7]

C[C@@H](O)[C@H](CO)NC(=O)[C@@H]1CSSC[C@H](NC(=O)[C@H](N)Cc2ccccc2)C(=O)N[C@@H](Cc2ccccc2)C(=O)N[C@H](Cc2c[nH]c3ccccc23)C(=O)N[C@@H](CCCCN)C(=O)N[C@@H]([C@@H](C)O)C(=O)N1 (H-[dF]CF[dW]KTC-{Threoninol(2S,3R)}; disulfide 2-7)
Not Active: IC50 [1] | IC50 (Neutrophil elastase) | IC50 [2] | IC50 [3] | IC50 [4] | IC50 [5] | Ki [5] | IC50 [6] | IC50 [7]

Cc1nccn1CC1CCc2c(c3ccccc3n2C)C1=O (centres undefined) [ONDANSETRON]
Not Active: IC50 [1] | IC50 (Neutrophil elastase) | IC50 [2] | IC50 [3] | IC50 [4] | IC50 [5] | Ki [5] | IC50 [6] | IC50 [7]

Reference: ChEMBL document CHEMBL1909046, “DrugMatrix in vitro pharmacology data”
